Assay results: patent US6855710B2, “Substituted indolines with an inhibitory effect on various kinases and complexes of CDKs” (Boehringer Ingelheim Pharma KG, priority 1998, dated 2005)

Row | Structure (SMILES) | melting point
1 | CN(C(=O)CCNC(=O)OC(C)(C)C)c1ccc(N/C(=C2\C(=O)Nc3ccccc32)c2ccccc2)cc1 [Example 376, (Z)-3-{1-[4-(N-(2-tert.butoxycarbonylamino-ethylcarbonyl)-N-methyl-amino)-phenylamino]-1-phenyl-methylidene}-2-indolinone] | 246 to 248 °C
2 | CC(C)CN(Cc1ccc(N/C(=C2\C(=O)Nc3ccc([N+](=O)[O-])cc32)c2ccccc2)cc1)CC(C)C [Example 163, (Z)-3-[1-(4-Diisobutylaminomethyl-phenylamino)-1-phenyl-methylidene]-5-nitro-2-indolinone] | 204 to 207 °C
3 | O=C1Nc2ccc([N+](=O)[O-])cc2/C1=C(/Nc1ccc(CNC2CC2)cc1)c1ccccc1 [Example 274, (Z)-3-{1-[4-(cyclopropylaminomethyl)-phenylamino]-1-phenyl-methylidene}-5-nitro-2-indolinone] | 220 to 221 °C (dec.)
4 | CN(C(=O)CN1CCNCC1)c1ccc(N/C(=C2\C(=O)Nc3ccccc32)c2ccccc2)cc1.Cl.Cl | 255 to 258 °C (dec.)
5 | CN(C)CCc1ccc(N/C(=C2\C(=O)Nc3ccccc32)c2ccccc2)cc1 [Example 268, (Z)-3-{1-[4-(2-dimethylamino-ethyl)-phenylamino]-1-phenyl-methylidene}-2-indolinone] | 244 to 246 °C
6 | CCS(=O)(=O)N(CCN(C)C)c1ccc(N/C(=C2\C(=O)Nc3ccccc32)c2ccccc2)cc1 [Example 307, (Z)-3-{1-[4-(N-(2-dimethylaminoethyl)-N-ethylsulphonyl-amino)-phenylamino]-1-phenyl-methylidene}-2-indolinone] | 245 °C
7 | O=CN(CCN1CCOCC1)c1ccc(N/C(=C2\C(=O)Nc3ccccc32)c2ccccc2)cc1 [Example 347, (Z)-3-{1-[4-(N-(2-morpholinoethyl)-N-formyl-amino)-phenylamino]-1-phenyl-methylidene}-2-indolinone] | 218 °C
8 | CC(=O)Nc1cccc(N/C(=C2\C(=O)Nc3ccc([N+](=O)[O-])cc32)c2ccccc2)c1 [Example 89, (Z)-3-[1-(3-acetylamino-phenylamino)-1-phenyl-methylidene]-5-nitro-2-indolinone] | 318 to 320 °C (dec.)
9 | CN(CCCOc1ccc(N/C(=C2\C(=O)Nc3ccccc32)c2ccccc2)cc1)Cc1ccccc1 [Example 288, (Z)-3-{1-[4-(3-(N-benzyl-N-methyl-amino)-propyloxy)-phenylamino]-1-phenyl-methylidene}-2-indolinone] | 187 to 189 °C
10 | CC(=O)N1CCN(Cc2ccc(N/C(=C3\C(=O)Nc4ccc([N+](=O)[O-])cc43)c3ccccc3)cc2)CC1 [Example 246, (Z)-3-{1-[4-(4-acetylpiperazin-1-ylmethyl)-phenylamino]-1-phenyl-methylidene}-5-nitro-2-indolinone] | 275 to 277 °C
11 | CN(C)C(=O)CNS(=O)(=O)c1ccc(N/C(=C2\C(=O)Nc3ccc([N+](=O)[O-])cc32)c2ccccc2)cc1 [Example 412, (Z)-3-{1-[4-(dimethylaminocarbonylmethylaminosulphonyl)-phenylamino]-1-phenyl-methylidene}-5-nitro-2-indolinone] | 281 to 283 °C
12 | CN(C)CCN(c1ccc(N/C(=C2\C(=O)Nc3ccccc32)c2ccccc2)cc1)S(=O)(=O)Cc1ccccc1 [Example 314, (Z)-3-{1-[4-(N-(2-dimethylaminoethyl)-N-benzylsulphonyl-amino)-phenylamino]-1-phenyl-methylidene}-2-indolinone] | 244 °C
13 | CN(C)C(=O)CN(c1ccc(N/C(=C2\C(=O)Nc3ccc([N+](=O)[O-])cc32)c2ccccc2)cc1)S(C)(=O)=O [Example 201, (Z)-3-{1-[4-(N-dimethylaminocarbonylmethyl-N-methylsulphonyl-amino)-phenylamino]-1-phenyl-methylidene}-5-nitro-2-indolinone] | 277 to 280 °C
14 | CC(=O)Nc1ccc(N/C(=C2\C(=O)Nc3ccccc32)c2ccccc2)cc1 [Example 31, (Z)-3-[1-(4-acetylamino-phenylamino]-1-phenyl-methylidene]-2-indolinone] | 236 to 238 °C
15 | COc1cccc(/C(Nc2ccc(CN(C)C)cc2)=C2/C(=O)Nc3ccc([N+](=O)[O-])cc32)c1 [Example 218, (Z)-3-[1-(4-dimethylaminomethyl-phenylamino)-1-(3-methoxyphenyl)-methylidene]-5-nitro-2-indolinone] | 206 to 208 °C
16 | CN(C(=O)CNCCN1CCOCC1)c1ccc(N/C(=C2\C(=O)Nc3ccccc32)c2ccccc2)cc1 [Example 373, (Z)-3-{1-[4-(N-(2-morpholinoethylaminomethylcarbonyl)-N-methyl-amino)-phenylamino]-1-phenyl-methylidene}-2-indolinone] | 117 to 119 °C
17 | CCCC(=O)N(CCN1CCOCC1)c1ccc(N/C(=C2\C(=O)Nc3ccc([N+](=O)[O-])cc32)c2ccccc2)cc1 [Example 337, (Z)-3-{1-[4-(N-(2-morpholinoethyl)-N-propylcarbonyl-amino)-phenylamino]-1-phenyl-methylidene}-5-nitro-2-indolinone] | 228 °C

Row | Structure (SMILES) | melting point
18 | CN(C)CC(=O)NCc1ccc(N/C(=C2\C(=O)Nc3ccccc32)c2ccccc2)cc1 [Example 74, (Z)-3-[1-(4-dimethylaminomethylcarbonylaminomethyl-phenylamino)-1-phenyl-methylidene}-2-indolinone] | 200 to 205 °C
19 | CN(C)Cc1ccc(N/C(=C2\C(=O)Nc3ccc([N+](=O)[O-])cc32)c2ccc([N+](=O)[O-])cc2)cc1 | 233 °C
20 | CC(=O)N(C)Cc1ccc(N/C(=C2\C(=O)Nc3ccc([N+](=O)[O-])cc32)c2ccccc2)cc1 [Example 122, (Z)-3-{1-[4-(N-acetyl-N-methyl-aminomethyl)-phenylamino]-1-phenyl-methylidene}-5-nitro-2-indolinone] | 307 °C
21 | CCN(CC)CCc1ccc(N/C(=C2\C(=O)Nc3ccc([N+](=O)[O-])cc32)c2ccccc2)cc1 [Example 130, (Z)-3-{1-[4-(2-diethylamino-ethyl)-phenylamino]-1-phenyl-methylidene}-5-nitro-2-indolinone] | 167 to 168 °C
22 | O=C1Nc2ccc([N+](=O)[O-])cc2/C1=C(/Nc1ccc(CN2CCS(=O)(=O)CC2)cc1)c1ccccc1 [Example 231, (Z)-3-{1-[4-((1,1-dioxothiomorpholino)-methyl)-phenylamino]-1-phenyl-methylidene}-5-nitro-2-indolinone] | 328 to 329 °C (dec.)
23 | CC(C)C(=O)N(CCN1CCOCC1)c1ccc(N/C(=C2\C(=O)Nc3ccccc32)c2ccccc2)cc1 [Example 350, (Z)-3-{1-[4-(N-(2-morpholinoethyl)-N-isopropylcarbonyl-amino)-phenylamino]-1-phenyl-methylidene}-2-indolinone] | 239 °C
24 | CCS(=O)(=O)N(CC(=O)NCCN(C)C)c1ccc(N/C(=C2\C(=O)Nc3ccc([N+](=O)[O-])cc32)c2ccccc2)cc1 [Example 295, (Z)-3-{1-[4-(N-(2-dimethylamino-ethylaminocarbonylmethyl)-N-ethylsulphonyl-amino)-phenylamino]-1-phenyl-methylidene}-5-nitro-2-indolinone] | 155 °C
25 | CN(C)CCN(C=O)c1ccc(N/C(=C2\C(=O)Nc3ccc([N+](=O)[O-])cc32)c2ccccc2)cc1 [Example 327, (Z)-3-{1-[4-(N-(2-dimethylaminoethyl)-N-formyl-amino)-phenylamino]-1-phenyl-methylidene}-5-nitro-2-indolinone] | 215 to 218 °C
26 | CC(=O)NCc1ccc(/C(Nc2cccc(N(CCCN(C)C)S(C)(=O)=O)c2)=C2/C(=O)Nc3ccccc32)cc1 [Example 425, (Z)-3-{1-[3-(N-(3-dimethylaminopropyl)-N-methylsulphonyl-amino)-phenylamino]-1-(4-acetylaminomethyl-phenyl)-methylidene}-2-indolinone] | 208 °C
27 | CN(C)CCN(c1cccc(N/C(=C2\C(=O)Nc3ccccc32)c2ccc(CN)cc2)c1)S(C)(=O)=O [Example 422, (Z)-3-{1-[3-(N-(2-dimethylaminoethyl)-N-methylsulphonyl-amino)-phenylamino]-1-(4-aminomethyl-phenyl)-methylidene}-2-indolinone] | 161 °C
28 | CC(C)(C)OC(=O)NCC(=O)NCc1ccc(N/C(=C2\C(=O)Nc3ccccc32)c2ccccc2)cc1 [Example 57, (Z)-3-[1-(4-tert.butoxycarbonylaminomethylcarbonylaminomethyl-phenylamino)-1-phenyl-methylidene}-2-indolinone] | 218 to 220 °C
29 | COc1ccc(/C(Nc2ccc(CN(C)C)cc2)=C2/C(=O)Nc3ccc([N+](=O)[O-])cc32)cc1 [Example 216, (Z)-3-[1-(4-dimethylaminomethyl-phenylamino)-1-(4-methoxyphenyl)-methylidene]-5-nitro-2-indolinone] | 259 to 262 °C
30 | Cl.O=C1Nc2ccc([N+](=O)[O-])cc2/C1=C(/Nc1ccc(CNCc2ccccc2)cc1)c1ccccc1 | 298 to 300 °C
31 | CC(C)C(=O)N(CCN1CCOCC1)c1ccc(N/C(=C2\C(=O)Nc3ccc([N+](=O)[O-])cc32)c2ccccc2)cc1 [Example 336, (Z)-3-{1-[4-(N-(2-morpholinoethyl)-N-isopropylcarbonyl-amino)-phenylamino]-1-phenyl-methylidene}-5-nitro-2-indolinone] | 254 °C
32 | O=C1Nc2ccc([N+](=O)[O-])cc2/C1=C(/Nc1ccc(CCN2CCC(O)CC2)cc1)c1ccccc1 [Example 260, (Z)-3-{1-[4-(2-(4-hydroxypiperidino)-ethyl)-phenylamino]-1-phenyl-methylidene}-5-nitro-2-indolinone] | 274 to 276 °C
33 | O=C1Nc2ccccc2/C1=C(/Nc1ccc(C(=O)N2CCCCC2)cc1)c1ccccc1 [Example 387, (Z)-3-{1-[4-(piperidinocarbonyl)-phenylamino]-1-phenyl-methylidene}-2-indolinone] | 212 to 214 °C
34 | CN(C)C(=O)CCNCc1cccc(N/C(=C2\C(=O)Nc3ccc([N+](=O)[O-])cc32)c2ccccc2)c1 [Example 253, (Z)-3-{1-[3-(2-dimethylaminocarbonyl-ethylaminomethyl)-phenylamino]-1-phenyl-methylidene}-5-nitro-2-indolinone] | 177 to 179 °C
